Laboratory results as given in patent publication US20050025839A1, “Formulation approach to enhance transporter-mediated drug uptake” (priority 2003, published 2005).

Columns and labels:
hASBT = molecular target: T1, hASBT (Homo sapiens, UniProt Q12908); test: Sodium-enhanced uptake into COS-hASBT cells (FIG. 1); type: cell-based; details: with vs without sodium
T1 construct: expressed in transfected cells; host or cells: COS cells (COS-hASBT)
T1 sequence (Q12908 1-348): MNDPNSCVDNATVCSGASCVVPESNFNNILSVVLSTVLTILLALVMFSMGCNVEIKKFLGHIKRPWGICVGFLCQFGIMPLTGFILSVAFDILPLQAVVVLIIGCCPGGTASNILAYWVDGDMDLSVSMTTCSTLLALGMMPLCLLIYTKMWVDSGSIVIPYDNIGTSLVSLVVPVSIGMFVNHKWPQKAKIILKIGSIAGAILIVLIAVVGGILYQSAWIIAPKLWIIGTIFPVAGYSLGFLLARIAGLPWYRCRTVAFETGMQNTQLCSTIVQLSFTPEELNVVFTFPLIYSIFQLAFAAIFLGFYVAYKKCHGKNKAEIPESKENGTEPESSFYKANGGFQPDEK
Source text: FIG. 1 illustrates how this invention provides for improved uptake of active agent, and specifically the impact of sodium on the uptake of an acyclovir prodrug that utilizes the hASBT transporter, which is a sodium-dependent transporter. […] COS-hASBT cells express hASBT. Acyclovir valylchenodeoxycholate is a prodrug of acyclovir, where acyclovir valylchenodeoxycholate is a substrate for hASBT. Uptake from acyclovir valylchenodeoxycholate prodrug and uptake from acyclovir are shown as closed bar and open bar, respectively. […] Error bars represent SEM's.

[1] = prodrug vs acyclovir, refs (9,10); cited from earlier work

Structure (SMILES): Nc1nc2c(ncn2COCCO)c(=O)[nH]1 [acyclovir, reference compound]
- Effect of sodium on uptake into COS-hASBT cells (hASBT): did not enhance

Structure (SMILES): CC(C)[C@H](NC(=O)CC[C@@H](C)[C@H]1CC[C@H]2[C@@H]3[C@H](O)C[C@@H]4C[C@H](O)CC[C@]4(C)[C@H]3CC[C@]12C)C(=O)OCCOCn1cnc2c(=O)[nH]c(N)nc21 [acyclovir valylchenodeoxycholate]
- Effect of sodium on uptake into COS-hASBT cells (hASBT): enhanced by sodium
- in vivo oral acyclovir bioavailability [1]: enhance in vivo oral acyclovir bioavailability
